Experimental data from patent publication US4092426A, “Novel aminobenzoic acid derivatives, process for preparing the same and pharmaceutical composition containing the same” (Chugai Seiyaku Kabushiki Kaisha, priority 1975, dated 1978).
Where a name gives a salt, the structure may show the parent alone.

Assays:
triglyceride in liver = assay: Action for decreasing triglyceride in liver (ethanol-induced); type: in vivo, Sprague Dawley strain female rats; conditions: rat, oral 100 mg/kg, 30 min before ethanol 6 g/kg; 24 h; 100 mg/kg
Method: Sprague Dawley strain female rats each weighing 170 - 200 g which had been fasted for 15 hours were divided into groups of 4 rats each. The rats were orally administered a different test compound in a dose of 100 mg/kg, and 30 minutes after the administration, orally administered ethanol in a dose of 6 g/kg. Twenty-four hours after the administration of ethanol, the liver of each rat was taken out and neutral lipid level in the liver was measured in a conventional manner to calculate the ratio of preventing an increase in triglyceride content in the liver. For a control group, ethanol and, for the other control group, a glucose aqueous solution equivalent in calorific value to the same amount of ethanol were used and the same manner as those of test groups, and for the positive control group, commercially available 2-mercaptopropionylglycine was used instead of the test compound.
*The % prevention was calculated by the following

AH-13 = assay: Antitumor Activity to Transplanted Cancer Cells (AH-13); type: in vivo, Donryu strain female rats; conditions: for Average Survival Terms: control 7.1
Source text: As test animals, Donryu strain female rats (8 week old) which were divided into groups of 10 members each were used. Each rat was intraperitoneally administered with test compound, disodium salt of N-2'-carboxyphenyl-4-chloroanthranilic acid, once a day for 10 days from 16 days before the inoculation of the tumor cells disclosed hereinbelow. Sixteen days after the first administration of the test compound, each rat was intraperitoneally inoculated with 10^6 tumor cells identified as AH-13 to induce cancer of abdominal dropsy.

Sarcoma-180 = assay: growth of Sarcoma-180 tumor cells in vitro; type: cell-based
neutrocyte = assay: Activity for Improving Bacteriocidal Ability in Neutrocyte (NBT test); type: in vivo, JW/CSK strain white male rabbits; conditions: rabbit, oral 100 mg/kg
Method: As test animals, JW/CSK strain white male rabbits weighing 3.0 - 3.9 kg were used, dividing them into groups of 5 members each. Each rabbit was orally administered with the test compound, disodium salt of N-2'-carboxyphenyl-4-chloroanthranilic acid in a dose of 100 mg/kg, and 24 hours after the administration, neutrocyte in the blood of the peripheral vessels were reacted with nitrobluetetrazorium (NBT) and then the proportion of cells positive to formazan was measured by a microscope. As the control, the value obtained from the same animal just 3 days before the administration of the test compound was referred to.

[1] = system: Pseudomonas aeruginosa Pa-II; assay: Activity for Protecting from Infection by Bucillus Pyocyaneous; type: in vivo; conditions: oral 2 mg/head; for Survival Terms: individual animals
Source text: As test animals, ddY strain male mice (5 week old) which were divided into groups of 7 members each were used. Each mouse was intraperitoneally inoculated with bucillus pyocyaneous, Pseudomonas aeruginosa Pa-II.

## O=C(O)c1ccccc1Nc1cc(Cl)ccc1C(=O)O [disodium salt of N-2'-carboxyphenyl-4-chloroanthranilic acid]
Triglyceride in liver
  % Prevention (of increase in triglyceride content in the liver): 63.6%
AH-13; 50 mg/kg i.p.
  T/C: 163%
  host-mediated antitumor activity (AH-13): exhibits host-mediated antitumor activity
  Average Survival Terms: 11.6 days
AH-13; 100 mg/kg i.p.
  T/C: 103%
  Average Survival Terms: 7.3 days
AH-13; 200 mg/kg i.p.
  T/C: 97%
  Average Survival Terms: 6.9 days
Sarcoma-180; directly on the cells
  direct antitumor activity on Sarcoma-180 cells: no antitumor activity directly on the cells
Sarcoma-180; in vitro
  growth of Sarcoma-180 cells in vitro: does not suppress the growth
neutrocyte
  proportion of neutrocyte cells positive to formazan: significantly increased
neutrocyte; 24 h after, before treatment 11.4 ± 1.8, P<0.05, Average ± Standard Deviation
  NBT Value: 33.3 ± 7.8%
[1]; 2 × 10^4 bacteria/head, mouse, S: survival at 54 hours
  Survival Terms: S,S,S,S,S and S,S
[1]; 2 × 10^4 bacteria/head, control 1/7
  Dead Animal/Test Animal: 0/7
[1]; 2 × 10^5 bacteria per head
  activity for protecting from the bacterial infection: activity of the test compound for protecting from the bacterial infection was observed
[1]; 2 × 10^5 bacteria/head, mouse, S: survival at 54 hours
  Survival Terms: S,S
[1]; 2 × 10^5 bacteria/head, control 6/7
  Dead Animal/Test Animal: 1/7
[1]; 2 × 10^6 bacteria/head, mouse
  Survival Terms: 29,29 hours
[1]; 2 × 10^6 bacteria/head, control 7/7
  Dead Animal/Test Animal: 7/7
[1]; mouse
  effect on bacillary toxin: acts to lower the bacillary toxin
